Laboratory results taken from patent US20120009203A1, “Depletion of cancer stem cells” (priority 2010, published 2012).
“Also recorded” adds a separate entry of the source.

Tests used:
OSCSCs [1] = assay: Cell death of OSCSCs by propidium iodide staining; assay type: cell-based, human; conditions: UC2 (OSCSCs, stem-like oral tumors); FIG. 25
OSCCs = assay: Cell death of OSCCs by propidium iodide staining; assay type: cell-based, human; conditions: for levels of cell death (propidium iodide staining): overnight; for Dose dependent effect on oral tumors: UC-1 (OSCCs, differentiated oral tumor), FIG. 25
Method: (§1) OSCSCs and OSCCs were treated with HEMA (1:600) and the chemotherapeutic drug cisplatinum at 10 μg/ml, 40 μg/ml and 80 μg/ml. After an overnight incubation the levels of cell death in each tumor type was determined using propidium iodide staining.
(§2) OSCSCs and OSCCs were irradiated at 2 Gy, 10 Gy and 20 Gy and left untreated or treated with chemotherapeutic drug cisplatinum at 40 μg/ml. After an overnight incubation the levels of cell death in each tumor type was determined using propidium iodide staining.
(§3) OSCSC and OSCCs were treated with Paclitaxel at 10 μg/ml, 40 μg/ml and 80 μg/ml in the presence and absence of NAC (20 mM) and after an overnight incubation the levels of cell death were determined using propidium iodide staining.

OSCSCs [2] = assay: Cell death of OSCSCs by propidium iodide staining; assay type: cell-based, human; conditions: overnight
Method: as §1, §2, §3

undifferentiated MSCs = assay: Cell death of MSCs versus osteoblasts, flow cytometry of PI stained cells; assay type: cell-based, human; conditions: undifferentiated MSCs compared to differentiated osteoblasts; different concentrations of HEMA; overnight; FIG. 8F
Method: FIG. 8. […] After 2 days of co-cultures, Alkaline Phosphatase staining was performed. […] The ALP stain densities for each well were determined using photoshop software (B). […] After 2 days of co-cultures Alkaline Phosphatase staining was performed. […] The ALP stain densities for each well were determined using photoshop software (D). Stem cells and Osteoblasts were cultured with and without untreated PBMCs as described above and after two days of incubation the supernatants were removed and subjected to specific ELISA for VEGF (E). Undifferentiated MSCs and those differentiated to osteoblasts were cultured in the absence and presence of different concentrations of HEMA as indicated in the figure and the levels of cell death were determined by flow cytometric analysis of PI stained MSCs and osteoblasts after an overnight incubation (F). […] After an overnight incubation, the cells were washed and B7H1 surface expression was determined on MSC gated populations. Isotype control antibodies were used as controls (I). MSCs were left untreated or treated with IFN-γ (500 u/ml). After an overnight incubation, MSCs were washed and the B7H1 surface expression was determined on MSC.
Moreover, when MSCs were cultured with NK cells alone or NK cells with monocytes significant induction of B7H1 surface expression could be observed in surviving MSCs (FIG. 8I). […]

pancreatic cells (BXPC3) = assay: Cell death of BXPC3 pancreatic cells; assay type: cell-based; conditions: FIG. 26
lung (A549) tumors = assay: Cell death of A549 lung tumors; assay type: cell-based; conditions: A549 pre-treated 5 days with supernatants from anergized NK cells (IL-2+anti-CD16 mAb), then Cisplatin overnight; FIG. 32
Method: NK treatments were carried out for 24 hours before the supernatants were removed and used to treat A549 lung tumors for 5 days. All the NK supernatant treated lung tumors were then washed and treated with different concentrations of Cisplatin as shown in the figure and incubated overnight before they were stained with propidium iodide to determine cell death in each sample.

[3] = OSCCs, HEMA 1:600, cisplatinum 10, 40 and 80 μg/ml, FIG. 15
[4] = OSCSCs, HEMA 1:600, cisplatinum 10, 40 and 80 μg/ml, FIG. 15

CC(=O)O[C@H]1C(=O)[C@@]2(C)[C@H]([C@H](OC(=O)c3ccccc3)[C@]3(O)C[C@H](OC(=O)[C@H](O)[C@@H](NC(=O)c4ccccc4)c4ccccc4)C(C)=C1C3(C)C)[C@]1(OC(C)=O)CO[C@@H]1C[C@@H]2O [Paclitaxel, paclitaxel]
Dose dependent effect on oral tumors (OSCSCs [1]): affects both cell types similarly
levels of cell death (propidium iodide staining) (OSCCs; OSCCs, Paclitaxel 10, 40 and 80 μg/ml with and without NAC 20 mM, FIG. 17): lysed both cell types
Dose dependent effect on oral tumors (OSCCs): affects both cell types similarly
levels of cell death (propidium iodide staining) (OSCSCs [2]; OSCSCs (cancer stem cells), Paclitaxel 10, 40 and 80 μg/ml with and without NAC 20 mM, FIG. 17): Lysis
levels of cell death (propidium iodide staining) (OSCSCs [2]; OSCSCs (cancer stem cells), Paclitaxel 10, 40 and 80 μg/ml with and without NAC 20 mM, FIG. 17, listed as paclitaxel): lysed both cell types

C=C(C)C(=O)OCCO [HEMA]
levels of cell death (propidium iodide staining) (OSCCs; [3]): lysed OSCCs significantly
levels of cell death (PI staining, flow cytometry) (undifferentiated MSCs): induced significant cell death
levels of cell death (propidium iodide staining) (OSCSCs [2]; [4]): significantly more resistant; also recorded: Resistance

CC(=O)N[C@@H](CS)C(=O)O [NAC, N-acetylcysteine]
effect of NAC on cisplatin mediated killing of pancreatic cells (pancreatic cells (BXPC3); in the presence of cisplatin): inhibits cisplatin mediated killing

N.N.[Cl][Pt][Cl] [Cisplatin, cisplatin]
Dose dependent effect on oral tumors (OSCSCs [1]): does not kill OSCSCs
levels of cell death (propidium iodide staining) (OSCCs; OSCCs irradiated at 2, 10, 20 Gy, cisplatinum 40 μg/ml, FIG. 16): lysed OSCCs significantly
levels of cell death (propidium iodide staining) (OSCCs; [3]): lysed OSCCs significantly
Dose dependent effect on oral tumors (OSCCs): increased effect on differentiated OSCCs
cell death by Cisplatin (propidium iodide) (lung (A549) tumors): highest induction of cell death by Cisplatin
levels of cell death (propidium iodide staining) (OSCSCs [2]; OSCSCs irradiated at 2, 10, 20 Gy, cisplatinum 40 μg/ml, FIG. 16): significantly more resistant; also recorded: Resistance
levels of cell death (propidium iodide staining) (OSCSCs [2]; [4]): significantly more resistant; also recorded: Resistance
cisplatin mediated killing of pancreatic cells (pancreatic cells (BXPC3)): Dose dependent increase
